Patent US8497074B2, “Granin proteins as markers of heart disease” (Universitetet I Oslo, priority 2008, dated 2013)
Entries after “also recorded” stand apart in the source; their conditions may differ.

Columns and labels:
Assay type in all cases: cell-based
[1] = test system: neonatal rat cardiomyocytes; test: CgB gene expression in isolated neonatal cardiomyocytes after stimulation with signaling agents (qRT-PCR)
Procedure: (§1) Neonatal rat cardiomyocytes were isolated from neonatal (1-3 days) Wistar rats (Taconic, Skensved, Denmark) as previously reported. After 24 hours starvation, the cardiomyocytes were stimulated for 24 hours with the following agents; Forskolin [1 and 10 μM], norepinephrine [100 μM], endothelin [77 ng/ml] and angiotensin II [1 μM] (all Sigma, Europe), tumor necrosis factor-α (TNF-α) [10 ng/ml] (BioSource International Camarillo, Calif., USA), interleukin-1β (IL-1β) [10 ng/ml], monocyte chemoattractant protein-1 (MCP-1) [200 ng/ml], transforming growth factor-β (TGF-β) [10 ng/ml] (all R&D Systems, Minneapolis, Minn., USA), and a C-terminal CgB peptide—CgB312-323 [1, 10 and 100 ng/ml] (053-20, Phoenix Pharmaceuticals, Burlingame, Calif., USA).
(§2) Total RNA was isolated from neonatal rat cardiomyocytes according to the protocol (RNeasy mini kit, Qiagen, Valencia, Calif., USA). Along with lysis buffer, the Mixer Mill 300 System (RETSCH, Haan, Germany) and stainless steel beads (Qiagen, Hilden, Germany) were used for mechanical disruption of the cells. RNA concentrations and quality were assessed as earlier described with the NanoDrop system and an Agilent BioAnalyzer 2100. Reverse transcription reactions were performed with iScript Select cDNA Synthesis Kit (Bio-Rad Laboratories, Inc., Hercules, Calif., USA). Gene expression was determined by qRT-PCR with pre-made TaqMan Gene Expression Assays from Applied Biosystems: CgB (Rn01514853—1), BNP (Rn00580641—1), Rp14 (Rn00821091—1). Gene expression in stimulated cells is presented as change vs. gene expression in PBS stimulated cells (normalized vs. control). All samples were run in triplicate and Rp14 gene expression was used as an internal control.
as §1, with “factor-α(TNF-α)” for “factor-α (TNF-α)”, “peptide—CgB312-323 and secretoneurin” for “peptide—CgB312-323”, “(053-20, 047-95,” for “(053-20,”
as §2, with “Biosystems: SgII (Rn01400686—1),” for “Biosystems:”

[2] = test system: neonatal rat cardiomyocytes; test: SgII gene expression in isolated neonatal cardiomyocytes after stimulation with signaling agents (qRT-PCR); conditions: stimulated for 24 hours, vs. PBS stimulated cells
Procedure: as §1, with “factor-α(TNF-α)” for “factor-α (TNF-α)”, “peptide—CgB312-323 and secretoneurin” for “peptide—CgB312-323”, “(053-20, 047-95,” for “(053-20,”
as §2, with “Biosystems: SgII (Rn01400686—1),” for “Biosystems:”

[3] = test system: neonatal rat cardiomyocytes; test: BNP gene expression in isolated neonatal cardiomyocytes after stimulation with signaling agents (qRT-PCR); conditions: stimulated for 24 hours, vs. PBS stimulated cells
Procedure: as §1, §2
as §1, with “factor-α(TNF-α)” for “factor-α (TNF-α)”, “peptide—CgB312-323 and secretoneurin” for “peptide—CgB312-323”, “(053-20, 047-95,” for “(053-20,”
as §2, with “Biosystems: SgII (Rn01400686—1),” for “Biosystems:”

[4] = neonatal rat cardiomyocytes, stimulated for 24 hours, vs. PBS stimulated cells

secretoneurin: 33 amino acid peptide fragment of SgII, 047-95, Phoenix Pharmaceuticals (TNEIVEEQYTPQSLATLESVFQELGKLTGPNNQ; Secretoneurin; UniProt P13521 182-214, looked up)
change in CgB gene expression (in words) [1, 4]: did not affect | change in SgII gene expression (in words) [2]: did not affect | change in SgII gene expression (in words) ([2]; listed as SgII): no significant change | change in BNP gene expression (in words) [3]: did not affect

angiotensin II (DRVYIHPF; Angiotensin-2; UniProt P01019 25-32, looked up)
change in CgB gene expression (in words) [1, 4]: significantly upregulated | change in CgB gene expression (in words) ([1]; neonatal rat cardiomyocytes, stimulated for 24 hours, vs. PBS stimulated cells, listed as AT II): upregulated | change in CgB gene expression (in words) ([1]; neonatal rat cardiomyocytes, stimulated for 24 hours, vs. PBS stimulated cells, listed as Angiotensin II): significantly upregulated | change in SgII gene expression (in words) [2]: no significant change | change in BNP gene expression (in words) [3]: increased

NC[C@H](O)c1ccc(O)c(O)c1 [norepinephrine]
CgB gene expression, times upregulated ([1]; isolated cardiomyocytes, change vs. PBS stimulated cells (FIG. 8A)): 3 × | CgB gene expression, fold increase ([1]; neonatal rat cardiomyocytes, stimulated for 24 hours, change vs. PBS stimulated cells): 3 fold | change in CgB gene expression (in words) ([1]; neonatal rat cardiomyocytes, stimulated for 24 hours, vs. PBS stimulated cells, listed as NA): upregulated; also recorded: potent agents for upregulating | SgII gene expression increase [2]: 55% | change in SgII gene expression (in words) ([2]; listed as NA): potent agents for upregulating; also recorded: increased | change in BNP gene expression (in words) ([3]; listed as NA): increased; also recorded: most powerful stimulus; also recorded: potent agents for upregulating

CC[C@H](C)[C@H](NC(=O)[C@H](CC(=O)O)NC(=O)[C@H](CC(C)C)NC(=O)[C@H](Cc1c[nH]cn1)NC(=O)[C@@H]1CSSC[C@H](N)C(=O)N[C@@H](CO)C(=O)N[C@H]2CSSC[C@H](NC(=O)[C@H](CCC(=O)O)NC(=O)[C@H](CCCCN)NC(=O)[C@H](CC(=O)O)NC(=O)[C@H](CCSC)NC(=O)[C@H](CC(C)C)NC(=O)[C@H](CO)NC(=O)[C@H](CO)NC2=O)C(=O)N[C@@H](C(C)C)C(=O)N[C@@H](Cc2ccc(O)cc2)C(=O)N[C@@H](Cc2ccccc2)C(=O)N1)C(=O)N[C@H](C(=O)N[C@@H](Cc1c[nH]c2ccccc12)C(=O)O)[C@@H](C)CC [endothelin]
change in CgB gene expression (in words) [1, 4]: no significant change | change in SgII gene expression (in words) [2]: no significant change | change in BNP gene expression (in words) [3]: increased

tumor necrosis factor-α
change in CgB gene expression (in words) [1, 4]: no significant change | change in SgII gene expression (in words) [2]: no significant change

interleukin-1β
change in CgB gene expression (in words) [1, 4]: no significant change | change in SgII gene expression (in words) [2]: no significant change

monocyte chemoattractant protein-1
change in CgB gene expression (in words) [1, 4]: significantly upregulated | change in CgB gene expression (in words) ([1]; neonatal rat cardiomyocytes, stimulated for 24 hours, vs. PBS stimulated cells, listed as MCP-1): upregulated | change in SgII gene expression (in words) [2]: no significant change

transforming growth factor-β
change in CgB gene expression (in words) [1, 4]: significantly upregulated | change in CgB gene expression (in words) ([1]; neonatal rat cardiomyocytes, stimulated for 24 hours, vs. PBS stimulated cells, listed as TGF-β): upregulated; also recorded: potent agents for upregulating | SgII gene expression increase [2]: 85% | change in SgII gene expression (in words) ([2]; listed as TGF-β): potent agents for upregulating; also recorded: increased | change in BNP gene expression (in words) ([3]; listed as TGF-β): increased; also recorded: potent agents for upregulating

C=C[C@@]1(C)CC(=O)[C@]2(O)[C@@]3(C)[C@@H](O)CCC(C)(C)[C@@H]3[C@H](O)[C@H](OC(C)=O)[C@@]2(C)O1 [Forskolin]
CgB production (gene expression) increase [1, 4]: 60% | SgII gene expression increase [2]: 40%
